From US20060217315A1, “Method of controlled ovarian hyperstimulation and pharmaceutical kit for use in such method” (priority 2001, published 2006)

Key:
[1] = system: midcycle gonadotropin surge; details: cited from earlier work
uterine contractility = details: vaginal administration starting on the day of oocyte retrieval, compared with preovulatory values; cited from earlier work
endogenous LH surge = experiment: Clinical investigation: intramuscular progesterone instead of hCG to allow an endogenous LH surge in COH; format: in vivo, human
Procedure: An open-label, uncontrolled clinical investigation is performed in 5 healthy female volunteers undergoing COH and subsequent IVF and ET, using the procedure as set forth in example 1, with the proviso that in stead of administering hCG a single intramuscular injection of 50 mg progesterone is administered to allow an endogenous LH surge to occur, inducing resumption of meiosis and luteinisation.

premature LH-surge = experiment: Open-label uncontrolled clinical trial of premature LH-surge prevention in COH with IVF and embryo transfer; format: in vivo, human; details: for prevention of premature LH-rises (above levels of 10 IU/L): day 6 of recombinant FSH treatment until day of hCG treatment
Procedure: An open-label, uncontrolled clinical trial is performed to investigate the efficacy, safety, and tolerability of premature LH-surge prevention in 30 female subjects undergoing COH and subsequent IVF and embryo transfer (ET), using a daily oral dosage of 40 mg mifepristone from day 6 of recombinant FSH treatment up to and including the day of hCG treatment and thrice daily intravaginal progesterone supplementation with 200 mg starting immediately after the hCG treatment for a period of up to 12 weeks. Although this treatment is suitable for all types of IVF patients (e.g. within the age range 18 to 45 years, with or without displaying polycystic ovarian syndrome and with or without a regular cycle), the following selection criteria are set forth in the investigation: healthy female partners of infertile couples; age at the time of screening between 20 and 39 years; a body mass index (BMI) between 19 and 29 kg/m^2; a regular menstrual cycle, and willing to give a written informed consent. Prior to the first administration of recombinant FSH a blood sample is taken for hormone analysis (estradiol and LH) and a standard urinary hCG assay is performed to exclude pregnancy. Recombinant FSH treatment is started at day 2 or 3 of menses onwards by a daily subcutaneous injection until the day of hCG administration. During the first 5 days of recombinant FSH treatment the dose is fixed at 150 IU. Starting at day 6, blood samples for hormone analysis are taken every two days prior to drug administration and ultrasonographic monitoring of follicle growth is performed to adjust, if necessary, the daily injectable dose of recombinant FSH. A subcutaneous injection with urinary hCG (5.000 IU) and an intramuscular injection of 50 mg progesterone are administered simultaneously, when at least three follicles exceed a diameter of 17 mm as measured by ultrasound scan and subsequently oocyte retrieval is performed 30-38 hours later. Using the procedure as set forth in example 1, with the proviso that, instead of using a daily dose of 40 mg mifepristone, mifepristone is used at a daily dose of 20 mg, a similar clinical outcome is obtained at a lower anti-P exposure level in the female subjects. […] Using the procedure as set forth in example 1, with the proviso that, instead of using a daily dose of 40 mg mifepristone, mifepristone is used at a daily dose of 10 mg, a similar clinical outcome is obtained at a lower anti-P exposure level in the female subjects.

folliculogenesis = details: 50 mg/day tablets from cycle day 2 until hCG injection, with recombinant FSH; cited from earlier work
endometrium = experiment: Controlled clinical study of endometrial receptivity in oocyte donors undergoing COH (glandular dating, pinopodes); format: in vivo, human; details: endometrial biopsy day 7 after hCG injection
Procedure: An open-label, randomized and controlled clinical study is performed in oocyte donors undergoing COH and in whom premature LH-surges are prevented by either standard GnRH agonist treatment (5 oocyte donors) or mifepristone treatment (5 oocyte donors) with the objective to compare endometrial receptivity. In women treated with 40 mg orally administered mifepristone, the procedure as set forth in example 1 is used, with the proviso that instead of administering progesterone for 12 weeks, daily intravaginal progesterone supplementation with 400 mg is started immediately after the hCG treatment and continued until the day of endometrial biopsy (day 7 after hCG injection in donors). To oocyte donors in the reference group, undergoing COH and receiving GnRH agonist, treatment with GnRH agonist is started in the midluteal phase of the preceding menstrual cycle and given concomitantly with recombinant FSH from day 2 or 3 of the COH cycle up to and including the day of hCG treatment Vaginal progesterone supplementation is started in the GnRH-treated oocyte donors directly after oocyte retrieval (36-38 hours after hCG injection) and continued until the day of endometrial biopsy (day 7 after hCG injection). Endometrial samples are taken from all oocyte donors. […]

Row | Structure (SMILES) | LH and FSH surges when added to RU486 ([1]; 5-10 mg/day, im, for 2 days, added to a 5-day course of RU486) | uterine contraction frequency on the day of embryo transfer (uterine contractility) | oocyte quality at harvest (endogenous LH surge; harvested at 36-3836 hours after starting progesterone treatment) | occurrence of endogenous LH-surges (endogenous LH surge; single intramuscular injection of 50 mg, after 40 mg mifepristone COH procedure) | timing of the midcycle gonadotropin surge and collapse of the dominant follicle ([1]; 1 mg/day for 5 or 15 days, starting when dominant follicle reached 14-16 mm) | emergence of periovulatory progesterone rise ([1]; 1 mg/day for 5 or 15 days) | tolerability and adverse effects (premature LH-surge; 10 mg daily oral) | prevention of premature LH-rises (above levels of 10 IU/L) (premature LH-surge; 10 mg daily oral) | tolerability and adverse effects (premature LH-surge; 20 mg daily oral) | prevention of premature LH-rises (above levels of 10 IU/L) (premature LH-surge; 20 mg daily oral) | tolerability and adverse effects (premature LH-surge; 40 mg daily oral) | prevention of premature LH-rises (above levels of 10 IU/L) (premature LH-surge; 40 mg daily oral) | effect on follicular development (folliculogenesis) | occurrence of LH-surges prior to hCG injection (folliculogenesis) | endometrial glandular dating (endometrium; hematoxylin and eosin staining) | presence of pinopodes (endometrium; scanning electron microscopy)
1 | CC(=O)[C@H]1CC[C@H]2[C@@H]3CCC4=CC(=O)CC[C@]4(C)[C@H]3CC[C@]12C [progesterone] | readily induced LH and FSH surges and completely reversed the effects of RU486 at midcycle | induced a decrease in uterine contraction frequency | retrieval of good quality oocytes | efficacious in allowing endogenous LH-surges to occur |  |  |  |  |  |  |  |  |  |  |  | 
2 | CC#C[C@]1(O)CC[C@H]2[C@@H]3CCC4=CC(=O)CCC4=C3[C@@H](c3ccc(N(C)C)cc3)C[C@@]21C [mifepristone] |  |  |  |  | consistently delayed | delayed the emergence of periovulatory progesterone rise | well tolerated and shows no adverse effects | efficacious in preventing premature LH-rises | well tolerated and shows no adverse effects | efficacious in preventing premature LH-rises | well tolerated and shows no adverse effects | efficacious in preventing premature LH-rises | arrests follicular development by delaying the growth of the dominant follicle | may prevent the occurrence of LH-surges | typically in-phase glandular dating is observed | pinopodes are readily visible
